Data on one molecule can be found in paper doi:10.1101/2025.03.13.642871v2 (biorxiv, 2026).

The term Kd denotes the equilibrium constant for the complex coming apart. High values mean a looser complex, low ones a tighter complex. For orientation: EC50 means the concentration needed to bring the measured effect to its halfway point. Higher therefore signals a need for much substance.

One assay has as its target T1, p300 bromodomain (Homo sapiens, UniProt Q09472).
T1 sequence (Q09472 1049-1156 limits assumed): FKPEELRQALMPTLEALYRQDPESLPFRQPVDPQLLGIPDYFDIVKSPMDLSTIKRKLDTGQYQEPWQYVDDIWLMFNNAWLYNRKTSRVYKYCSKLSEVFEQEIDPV
Put plainly: SPR, single-cycle kinetics, NTA chip. The class given is binding. (In SPR one partner is held on a chip, and binding of the other changes the refractive index at the surface.)

A further assay addresses CREBBP (Homo sapiens, UniProt Q92793). Put plainly: cell-free H3K27 acetylation, immunoblot. The assay is classed as biochemical.
In the next assay the target is p300 (Homo sapiens, UniProt Q09472). Put plainly: cell-free H3K27 acetylation, immunoblot. The class given is biochemical. On the technique in general: Immunoblotting shows a protein as a band on a membrane.
p300, sequence (Q09472 2-2414): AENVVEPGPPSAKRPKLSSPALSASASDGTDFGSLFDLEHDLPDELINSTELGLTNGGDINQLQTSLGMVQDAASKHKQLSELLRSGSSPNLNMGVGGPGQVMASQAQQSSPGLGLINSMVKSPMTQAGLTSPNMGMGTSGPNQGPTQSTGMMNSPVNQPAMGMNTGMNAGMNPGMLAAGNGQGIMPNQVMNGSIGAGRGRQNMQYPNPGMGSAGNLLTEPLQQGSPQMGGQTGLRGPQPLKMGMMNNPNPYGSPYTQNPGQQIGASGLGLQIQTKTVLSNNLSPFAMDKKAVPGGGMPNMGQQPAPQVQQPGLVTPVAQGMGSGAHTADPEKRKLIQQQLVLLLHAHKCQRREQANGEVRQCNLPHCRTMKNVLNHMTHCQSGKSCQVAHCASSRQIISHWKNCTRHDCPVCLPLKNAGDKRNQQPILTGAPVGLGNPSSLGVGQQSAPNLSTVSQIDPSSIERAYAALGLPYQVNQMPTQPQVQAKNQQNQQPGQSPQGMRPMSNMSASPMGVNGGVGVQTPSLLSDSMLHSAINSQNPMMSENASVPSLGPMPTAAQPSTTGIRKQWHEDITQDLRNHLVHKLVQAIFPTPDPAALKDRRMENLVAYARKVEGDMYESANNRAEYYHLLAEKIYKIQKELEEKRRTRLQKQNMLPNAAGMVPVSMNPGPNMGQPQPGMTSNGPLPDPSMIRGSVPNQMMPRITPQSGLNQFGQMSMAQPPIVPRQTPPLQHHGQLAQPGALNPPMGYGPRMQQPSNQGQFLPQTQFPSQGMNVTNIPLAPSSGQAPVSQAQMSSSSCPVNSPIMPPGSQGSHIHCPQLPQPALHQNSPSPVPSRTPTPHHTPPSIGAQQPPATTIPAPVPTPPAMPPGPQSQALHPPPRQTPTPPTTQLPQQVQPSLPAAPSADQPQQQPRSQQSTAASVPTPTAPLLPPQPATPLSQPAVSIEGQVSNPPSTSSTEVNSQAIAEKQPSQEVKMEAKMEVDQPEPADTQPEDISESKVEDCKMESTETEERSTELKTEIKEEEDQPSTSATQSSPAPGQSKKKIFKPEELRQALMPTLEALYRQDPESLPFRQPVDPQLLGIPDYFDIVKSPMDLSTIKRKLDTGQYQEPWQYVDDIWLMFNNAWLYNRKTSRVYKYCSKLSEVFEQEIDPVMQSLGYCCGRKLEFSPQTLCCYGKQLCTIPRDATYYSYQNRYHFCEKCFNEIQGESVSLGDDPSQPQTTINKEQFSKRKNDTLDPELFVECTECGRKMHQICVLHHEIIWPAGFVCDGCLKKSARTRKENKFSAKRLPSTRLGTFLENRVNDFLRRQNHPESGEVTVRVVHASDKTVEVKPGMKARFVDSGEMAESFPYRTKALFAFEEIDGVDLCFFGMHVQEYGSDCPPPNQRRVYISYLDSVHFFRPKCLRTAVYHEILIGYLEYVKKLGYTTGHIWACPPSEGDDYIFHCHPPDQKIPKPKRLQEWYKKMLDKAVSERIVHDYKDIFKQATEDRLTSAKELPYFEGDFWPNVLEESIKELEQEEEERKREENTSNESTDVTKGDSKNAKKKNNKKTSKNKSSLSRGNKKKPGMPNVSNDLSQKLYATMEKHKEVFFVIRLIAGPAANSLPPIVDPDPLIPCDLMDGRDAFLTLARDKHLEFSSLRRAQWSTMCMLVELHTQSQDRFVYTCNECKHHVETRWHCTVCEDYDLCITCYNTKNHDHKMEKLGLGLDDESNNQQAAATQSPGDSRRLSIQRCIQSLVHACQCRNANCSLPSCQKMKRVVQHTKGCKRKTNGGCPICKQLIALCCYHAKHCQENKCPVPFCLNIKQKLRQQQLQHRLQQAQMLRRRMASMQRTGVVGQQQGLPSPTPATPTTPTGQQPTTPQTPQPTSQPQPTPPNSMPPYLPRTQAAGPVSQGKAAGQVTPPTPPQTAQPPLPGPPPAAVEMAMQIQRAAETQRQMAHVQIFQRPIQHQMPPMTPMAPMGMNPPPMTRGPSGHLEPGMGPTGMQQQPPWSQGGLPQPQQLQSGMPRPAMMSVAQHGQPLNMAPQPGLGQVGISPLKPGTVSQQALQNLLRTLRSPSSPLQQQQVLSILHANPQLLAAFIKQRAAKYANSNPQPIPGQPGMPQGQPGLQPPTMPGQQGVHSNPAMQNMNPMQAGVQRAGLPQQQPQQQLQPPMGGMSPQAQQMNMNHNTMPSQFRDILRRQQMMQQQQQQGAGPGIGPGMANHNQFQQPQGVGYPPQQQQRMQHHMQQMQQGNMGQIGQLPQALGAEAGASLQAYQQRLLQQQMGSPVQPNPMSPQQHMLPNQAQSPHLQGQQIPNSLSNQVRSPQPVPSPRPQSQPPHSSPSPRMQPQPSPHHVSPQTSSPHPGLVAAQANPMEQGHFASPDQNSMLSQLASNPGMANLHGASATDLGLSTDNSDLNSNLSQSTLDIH

CREBBP, sequence (Q92793 2-2442): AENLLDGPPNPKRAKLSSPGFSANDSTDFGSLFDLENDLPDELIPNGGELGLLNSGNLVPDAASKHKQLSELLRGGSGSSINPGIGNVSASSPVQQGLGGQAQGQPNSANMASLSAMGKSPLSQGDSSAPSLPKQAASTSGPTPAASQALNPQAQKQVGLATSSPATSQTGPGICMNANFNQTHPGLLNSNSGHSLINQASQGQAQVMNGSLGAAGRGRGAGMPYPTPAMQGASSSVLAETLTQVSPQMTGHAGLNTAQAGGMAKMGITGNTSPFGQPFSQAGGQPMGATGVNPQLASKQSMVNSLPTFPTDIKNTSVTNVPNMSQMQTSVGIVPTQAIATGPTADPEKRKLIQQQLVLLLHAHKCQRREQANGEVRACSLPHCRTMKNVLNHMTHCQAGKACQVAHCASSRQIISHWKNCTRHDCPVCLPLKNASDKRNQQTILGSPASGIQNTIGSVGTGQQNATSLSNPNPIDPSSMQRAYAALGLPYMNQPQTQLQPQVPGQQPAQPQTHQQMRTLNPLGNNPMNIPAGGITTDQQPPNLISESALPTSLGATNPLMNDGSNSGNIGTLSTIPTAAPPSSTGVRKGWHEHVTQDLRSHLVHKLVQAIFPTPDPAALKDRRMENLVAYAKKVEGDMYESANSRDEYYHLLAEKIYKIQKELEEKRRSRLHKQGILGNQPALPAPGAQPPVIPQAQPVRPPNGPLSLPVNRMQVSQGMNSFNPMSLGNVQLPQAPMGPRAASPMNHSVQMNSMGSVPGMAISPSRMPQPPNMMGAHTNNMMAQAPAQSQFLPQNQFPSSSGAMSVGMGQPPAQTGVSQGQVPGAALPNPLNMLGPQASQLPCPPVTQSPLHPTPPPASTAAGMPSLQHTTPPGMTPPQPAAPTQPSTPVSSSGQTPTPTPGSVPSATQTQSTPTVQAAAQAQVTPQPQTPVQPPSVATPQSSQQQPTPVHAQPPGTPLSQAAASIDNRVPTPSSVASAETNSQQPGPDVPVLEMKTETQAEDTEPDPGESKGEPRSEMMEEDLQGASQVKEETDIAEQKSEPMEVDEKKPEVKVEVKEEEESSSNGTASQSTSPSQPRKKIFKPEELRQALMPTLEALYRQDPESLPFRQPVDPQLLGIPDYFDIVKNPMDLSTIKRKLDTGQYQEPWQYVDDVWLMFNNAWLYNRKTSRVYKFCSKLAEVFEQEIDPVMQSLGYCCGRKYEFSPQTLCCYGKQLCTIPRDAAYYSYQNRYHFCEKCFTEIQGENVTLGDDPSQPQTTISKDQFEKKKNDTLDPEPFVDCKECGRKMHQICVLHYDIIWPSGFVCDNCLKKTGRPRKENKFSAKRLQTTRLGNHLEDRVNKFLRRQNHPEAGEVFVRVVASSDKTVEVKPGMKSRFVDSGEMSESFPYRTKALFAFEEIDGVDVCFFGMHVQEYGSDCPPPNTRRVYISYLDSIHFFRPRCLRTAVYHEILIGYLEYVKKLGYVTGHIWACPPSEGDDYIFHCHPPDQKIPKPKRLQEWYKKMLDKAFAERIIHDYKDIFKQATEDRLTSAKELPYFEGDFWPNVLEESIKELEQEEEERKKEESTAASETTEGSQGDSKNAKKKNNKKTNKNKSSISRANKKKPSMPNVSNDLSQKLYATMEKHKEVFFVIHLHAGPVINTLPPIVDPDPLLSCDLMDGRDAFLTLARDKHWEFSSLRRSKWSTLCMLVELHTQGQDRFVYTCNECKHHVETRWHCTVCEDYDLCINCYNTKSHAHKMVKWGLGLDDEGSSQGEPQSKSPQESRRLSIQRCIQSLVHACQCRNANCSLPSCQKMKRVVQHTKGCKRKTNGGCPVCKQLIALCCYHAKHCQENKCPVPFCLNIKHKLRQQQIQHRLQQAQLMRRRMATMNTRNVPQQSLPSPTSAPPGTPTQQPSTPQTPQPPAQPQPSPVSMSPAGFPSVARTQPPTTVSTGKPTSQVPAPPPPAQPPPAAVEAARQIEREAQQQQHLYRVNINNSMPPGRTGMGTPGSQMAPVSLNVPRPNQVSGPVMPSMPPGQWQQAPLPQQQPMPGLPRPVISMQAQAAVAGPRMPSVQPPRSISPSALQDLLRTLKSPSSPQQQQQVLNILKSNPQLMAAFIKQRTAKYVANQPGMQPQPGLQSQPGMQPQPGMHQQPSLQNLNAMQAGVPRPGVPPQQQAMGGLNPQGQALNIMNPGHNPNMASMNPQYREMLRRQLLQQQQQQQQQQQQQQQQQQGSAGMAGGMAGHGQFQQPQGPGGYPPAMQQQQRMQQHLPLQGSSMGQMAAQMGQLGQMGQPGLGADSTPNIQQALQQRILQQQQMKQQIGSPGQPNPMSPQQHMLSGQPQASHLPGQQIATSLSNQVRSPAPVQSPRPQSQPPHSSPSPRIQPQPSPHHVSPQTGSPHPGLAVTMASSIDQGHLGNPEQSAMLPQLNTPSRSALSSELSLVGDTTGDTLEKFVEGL

`CCOc1cccc(OCCN(C)C)c1C(=O)Nc1ccc(Cl)c(C(F)(F)F)c1` [YF2] returned a dissociation constant Kd at p300 bromodomain of 4.42 µM. The results for the half-maximal effective concentration (EC50) on CREBBP and on p300 were 15.8 µM and 4.32 µM, respectively.
